What was measured:
[1] = Relaxivity on relaxometer (minispec pc120; 20 MHz; 40° C.); assay type: physicochemical; details: dist. water, pH 7.4, 20 MHz, 0-1 mmol/l
Protocol: (§1) Determination of Compatibility and Relaxivity of the Compounds According to the Invention
To determine the relaxivity, the relaxation times of the substances were measured in 4 different concentrations (0-1 mmol/l; dissolved in dist. water; pH 7.4) on a relaxometer (minispec pc120; 20 MHz; 40° C.). The calculation was performed from:
Δ(1/T1,2 -1/T1,2 blank value)/Δconc.=R1,2

lymph nodes (iliacal) = assay: MR-imaging of VX-2 tumor-bearing rabbits: lymph nodes (iliacal); assay type: in vivo, rabbit; details: 0.1 mmol/kg i.v.
Excerpt: (§2) MR-Imaging Experiment of Tumor-bearing (VX-2 Carcinoma) Rabbits
(§3) Siemens magnetom® (1.5 tesla; 64 MHz), T1 -accentuated spin-echo technique: TR : 350 ms, TE : 15 ms. slice orientation: coronary, slice thickness: 3 mm, number of averages: 4 per layer, field of view: 150 mm, matrix: 256^2, 4-6 layers, 1 echo per imaging sequence.
(§4) Hare rabbit, Wulf, female,=4 kg of body weight (KGW) [n=3].
(§5) Carcinoma (VX-2), implanted intramuscularly about 3 weeks before the beginning of the test.
(§6) 0.05 and 0.1 mmol/kg of body weight i.v.

lymph node metastasis = assay: MR-imaging of VX-2 tumor-bearing rabbits: lymph node metastasis; assay type: in vivo, rabbit; details: 0.1 mmol/kg i.v.
Excerpt: as §2, §3, §4, §5, §6

VX-2 carcinoma = assay: MR-imaging of VX-2 tumor-bearing rabbits: VX-2 carcinoma; assay type: in vivo, rabbit; details: 0.1 mmol/kg i.v.
Excerpt: as §2, §3, §4, §5, §6

muscle = assay: MR-imaging of VX-2 tumor-bearing rabbits: muscle; assay type: in vivo, rabbit; details: 0.1 mmol/kg i.v.
Excerpt: as §2, §3, §4, §5, §6

[2] = tested on: implanted tumor and lymph nodes; assay: MR-imaging of VX-2 tumor-bearing rabbits: implanted tumor and lymph nodes; assay type: in vivo, rabbit; details: 0.1 mmol/kg i.v.
Excerpt: as §2, §3, §4, §5, §6

[3] = Compatibility in mice after i.v. administration, 7-day observation; details: mouse, in vivo, iv, 7 days observation, > if all animals tolerated the dose, < if all died
Protocol: as §1
The compatibility was examined preliminarily in mice (NMRI, Schering SPF, female, about 25 g). 0.5 mmol/kg of the substance in each case was administered intravenously to a mouse. The animal died, the dose was halved and correspondingly moved, otherwise the corresponding dose was administered to 2 additional mice. The period of observation was 7 days. The compatibility is indicated with > if all animals tolerated the corresponding dose, with < if all died.

[4] = 0 min p.i. (precontrast set to 1)

In the case of `CC(=O)[O-].COc1ccc(-c2c3nc(c(-c4ccc(OC)c(S(=O)(=O)[O-])c4)c4ccc([nH]4)c(-c4ccc(OC)c(S(=O)(=O)[O-])c4)c4nc(c(-c5ccc(OC)c(S(=O)(=O)[O-])c5)c5ccc2[nH]5)C=C4)C=C3)cc1S(=O)(=O)[O-].[Mn+3].[Na+].[Na+].[Na+].[Na+]` [Example 17 from EP 0336 879 A1], the “Relaxivity R1” value [1] is reported as 9.2 I/mmol/s.

In the case of Gd-DTPA, the “Relative signal intensity, lymph nodes (iliacal)” value (lymph nodes (iliacal); [4]) is reported as 1.00, the “Relative signal intensity, lymph nodes (iliacal)” value (lymph nodes (iliacal); 2 min p.i.) is reported as 1.50 and the “Relative signal intensity, lymph nodes (iliacal)” value (lymph nodes (iliacal); 8 min p.i.) is reported as 1.32. For the same compound, the “Relative signal intensity, lymph nodes (iliacal)” value (lymph nodes (iliacal); 17 min p.i.) was 1.20, the “Relative signal intensity, lymph nodes (iliacal)” value (lymph nodes (iliacal); 42 min p.i.) was 1.24 and the “Relative signal intensity, lymph nodes (iliacal)” value (lymph nodes (iliacal); 52 min p.i.) was 1.17. For the same compound, the “Relative signal intensity, lymph nodes (iliacal)” value (lymph nodes (iliacal); 69 min p.i.) was 1.11, the “Relative signal intensity, lymph nodes (iliacal)” value (lymph nodes (iliacal); 24 hours p.i.) was 1.14 and the “Relative signal intensity, lymph node metastasis” value (lymph node metastasis; [4]) was 1.00. For the same compound, the “Relative signal intensity, lymph node metastasis” value (lymph node metastasis; 2 min p.i.) was 1.61, the “Relative signal intensity, lymph node metastasis” value (lymph node metastasis; 8 min p.i.) was 1.44 and the “Relative signal intensity, lymph node metastasis” value (lymph node metastasis; 17 min p.i.) was 1.36. The “Relative signal intensity, lymph node metastasis” value (lymph node metastasis; 42 min p.i.) was 1.29, the “Relative signal intensity, lymph node metastasis” value (lymph node metastasis; 52 min p.i.) was 1.20 and the “Relative signal intensity, lymph node metastasis” value (lymph node metastasis; 69 min p.i.) was 1.25. For the same compound, the “Relative signal intensity, lymph node metastasis” value (lymph node metastasis; 24 hours p.i.) was 0.97, the “Relative signal intensity, VX-2 carcinoma” value (VX-2 carcinoma; [4]) was 1.00 and the “Relative signal intensity, VX-2 carcinoma” value (VX-2 carcinoma; 2 min p.i.) was 1.50. The “Relative signal intensity, VX-2 carcinoma” value (VX-2 carcinoma; 8 min p.i.) was 1.50, the “Relative signal intensity, VX-2 carcinoma” value (VX-2 carcinoma; 17 min p.i.) was 1.48 and the “Relative signal intensity, VX-2 carcinoma” value (VX-2 carcinoma; 42 min p.i.) was 1.47. For the same compound, the “Relative signal intensity, VX-2 carcinoma” value (VX-2 carcinoma; 52 min p.i.) was 1.42, the “Relative signal intensity, VX-2 carcinoma” value (VX-2 carcinoma; 69 min p.i.) was 1.40 and the “Relative signal intensity, VX-2 carcinoma” value (VX-2 carcinoma; 24 hours p.i.) was 1.11. The “Relative signal intensity, muscle” value (muscle; [4]) was 1.00, the “Relative signal intensity, muscle” value (muscle; 2 min p.i.) was 1.20 and the “Relative signal intensity, muscle” value (muscle; 8 min p.i.) was 1.11. The “Relative signal intensity, muscle” value (muscle; 17 min p.i.) was 1.10, the “Relative signal intensity, muscle” value (muscle; 42 min p.i.) was 1.07 and the “Relative signal intensity, muscle” value (muscle; 52 min p.i.) was 1.02. The “Relative signal intensity, muscle” value (muscle; 69 min p.i.) was 1.08, the “Relative signal intensity, muscle” value (muscle; 24 hours p.i.) was 1.04 and the “enhancement of tumors or metastases after about 60-90 minutes” value [2] was “almost no enhancement of tumors or metastases was observed any longer”. For the same compound, the “signal rise in implanted tumor and lymph nodes” value ([2]; lymph nodes on tumor-bearing and tumor-free side (iliacal and popliteal)) was “only in a brief, small signal rise” and the “time until approximately the starting intensity was reached again” value ([2]; virtually all examined tissues, within about) was 60 to 90 min.

For `CC(=O)[O-].CC(=O)[O-].CC(=O)[O-].CCOC(=O)COc1ccc(-c2c3nc(c(-c4ccc(OCC(=O)OCC)c(OCC(=O)OCC)c4)c4ccc([nH]4)c(-c4ccc(OCC(=O)OCC)c(OCC(=O)OCC)c4)c4nc(c(-c5ccc(OCC(=O)OCC)c(OCC(=O)OCC)c5)c5ccc2[nH]5)C=C4)C=C3)cc1OCC(=O)OCC.[Mn+3]` [Example 4c, Manganese(III)-{5,10,15,20-tetrakis-[3,4-bis-(ethoxycarbonylmethoxy)-phenyl]-porphyrin}-acetate], the MTD at 168 h [3] was at least 500 µmol/kg and the “Relaxivity R1” value [1] was 11.6 I/mmol/s.

In the case of “Manganese (III){5,10,15,20tetrakis-{[4carboxylic acid(2,3-dihydroxy-1-hydroxymethylpropyl)-amidephenylporphyrinacetate [Example 2 from EP 0336 879 A1]”, the “Relaxivity R1” value [1] is reported as 8.6 I/mmol/s.

For `CC(=O)[O-].O=C([O-])c1cccc(-c2c3nc(c(-c4cccc(C(=O)[O-])c4)c4ccc([nH]4)c(-c4cccc(C(=O)[O-])c4)c4nc(c(-c5cccc(C(=O)[O-])c5)c5ccc2[nH]5)C=C4)C=C3)c1.[Mn+3]` [Example 4 from EP 0336 879 A1], the “Relaxivity R1” value [1] was 8.8 I/mmol/s.

In the case of `O=C(O)COc1cccc(-c2c3nc(c(-c4cccc(OCC(=O)O)c4)c4ccc([nH]4)c(-c4cccc(OCC(=O)O)c4)c4nc(c(-c5cccc(OCC(=O)O)c5)c5ccc2[nH]5)C=C4)C=C3)c1.[Cl-].[Cl-].[Cl-].[Mn+3]` [Example 2c, Manganese(III)-{5,10,15,20-tetrakis-[3-(carboxymethoxy)-phenyl]-porphyrin}-chloride], the MTD at 168 h [3] is reported as over 500 µmol/kg and the “Relaxivity R1” value [1] is reported as 13 I/mmol/s.

From US5674467A, “Meso-tetraphenylporphyrin complex compounds, process for their production and pharmaceutical agents containing the latter” (Institut fur Diagnostikforschung GmbH, priority 1993, dated 1997)
